Measurements taken from ChEMBL document CHEMBL6071183, “Neuroprotective Effect of 2-(Benzyloxy)arylureas Is Not Related to CypD Inhibition nor Suppression of mPTP Opening” (ACS Med Chem Lett, 2024).
≈ marks a conversion by molar mass, not a printed value.

Assays:
[1] = target: Peptidyl-prolyl cis-trans isomerase A (Homo sapiens, UniProt P62937)
Sequence of Peptidyl-prolyl cis-trans isomerase A (P62937 whole entry): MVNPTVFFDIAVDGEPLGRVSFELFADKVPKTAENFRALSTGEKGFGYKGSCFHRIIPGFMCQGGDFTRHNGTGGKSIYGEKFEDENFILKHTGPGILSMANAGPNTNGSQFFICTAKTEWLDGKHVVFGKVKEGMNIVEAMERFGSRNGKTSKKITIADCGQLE

solubility (physchem): 20 µM (≈ 7.29 µg/mL)
IC50 [1]: 10 µM
SMILES: O=C(Nc1ccc([N+](=O)[O-])cc1)Nc1ncccc1OCc1ccccc1
